Test results taken from paper PMC4413198, “Inhibition of N-Type Calcium Channels by Fluorophenoxyanilide Derivatives” (Marine Drugs, 2015).
“And” between values parts separate entries of the source, which are not always exact repeats. Equal values may be shown once. Read-outs that look alike come from different tables or passages of the source.

Experiments:
[1] = target: T1, human Cav2.2 channels (Homo sapiens, UniProt Q00975); assay: SH-SY5Y neuroblastoma FLIPR assay of KCl-evoked calcium responses in presence of nifedipine; format: cell-based; settings: for extent of inhibition of KCl-induced Ca2+ responses: in words; for inhibition at 300 µM: SH-SY5Y, read-out: % Max inhibition
T1 sequence (Q00975 whole entry): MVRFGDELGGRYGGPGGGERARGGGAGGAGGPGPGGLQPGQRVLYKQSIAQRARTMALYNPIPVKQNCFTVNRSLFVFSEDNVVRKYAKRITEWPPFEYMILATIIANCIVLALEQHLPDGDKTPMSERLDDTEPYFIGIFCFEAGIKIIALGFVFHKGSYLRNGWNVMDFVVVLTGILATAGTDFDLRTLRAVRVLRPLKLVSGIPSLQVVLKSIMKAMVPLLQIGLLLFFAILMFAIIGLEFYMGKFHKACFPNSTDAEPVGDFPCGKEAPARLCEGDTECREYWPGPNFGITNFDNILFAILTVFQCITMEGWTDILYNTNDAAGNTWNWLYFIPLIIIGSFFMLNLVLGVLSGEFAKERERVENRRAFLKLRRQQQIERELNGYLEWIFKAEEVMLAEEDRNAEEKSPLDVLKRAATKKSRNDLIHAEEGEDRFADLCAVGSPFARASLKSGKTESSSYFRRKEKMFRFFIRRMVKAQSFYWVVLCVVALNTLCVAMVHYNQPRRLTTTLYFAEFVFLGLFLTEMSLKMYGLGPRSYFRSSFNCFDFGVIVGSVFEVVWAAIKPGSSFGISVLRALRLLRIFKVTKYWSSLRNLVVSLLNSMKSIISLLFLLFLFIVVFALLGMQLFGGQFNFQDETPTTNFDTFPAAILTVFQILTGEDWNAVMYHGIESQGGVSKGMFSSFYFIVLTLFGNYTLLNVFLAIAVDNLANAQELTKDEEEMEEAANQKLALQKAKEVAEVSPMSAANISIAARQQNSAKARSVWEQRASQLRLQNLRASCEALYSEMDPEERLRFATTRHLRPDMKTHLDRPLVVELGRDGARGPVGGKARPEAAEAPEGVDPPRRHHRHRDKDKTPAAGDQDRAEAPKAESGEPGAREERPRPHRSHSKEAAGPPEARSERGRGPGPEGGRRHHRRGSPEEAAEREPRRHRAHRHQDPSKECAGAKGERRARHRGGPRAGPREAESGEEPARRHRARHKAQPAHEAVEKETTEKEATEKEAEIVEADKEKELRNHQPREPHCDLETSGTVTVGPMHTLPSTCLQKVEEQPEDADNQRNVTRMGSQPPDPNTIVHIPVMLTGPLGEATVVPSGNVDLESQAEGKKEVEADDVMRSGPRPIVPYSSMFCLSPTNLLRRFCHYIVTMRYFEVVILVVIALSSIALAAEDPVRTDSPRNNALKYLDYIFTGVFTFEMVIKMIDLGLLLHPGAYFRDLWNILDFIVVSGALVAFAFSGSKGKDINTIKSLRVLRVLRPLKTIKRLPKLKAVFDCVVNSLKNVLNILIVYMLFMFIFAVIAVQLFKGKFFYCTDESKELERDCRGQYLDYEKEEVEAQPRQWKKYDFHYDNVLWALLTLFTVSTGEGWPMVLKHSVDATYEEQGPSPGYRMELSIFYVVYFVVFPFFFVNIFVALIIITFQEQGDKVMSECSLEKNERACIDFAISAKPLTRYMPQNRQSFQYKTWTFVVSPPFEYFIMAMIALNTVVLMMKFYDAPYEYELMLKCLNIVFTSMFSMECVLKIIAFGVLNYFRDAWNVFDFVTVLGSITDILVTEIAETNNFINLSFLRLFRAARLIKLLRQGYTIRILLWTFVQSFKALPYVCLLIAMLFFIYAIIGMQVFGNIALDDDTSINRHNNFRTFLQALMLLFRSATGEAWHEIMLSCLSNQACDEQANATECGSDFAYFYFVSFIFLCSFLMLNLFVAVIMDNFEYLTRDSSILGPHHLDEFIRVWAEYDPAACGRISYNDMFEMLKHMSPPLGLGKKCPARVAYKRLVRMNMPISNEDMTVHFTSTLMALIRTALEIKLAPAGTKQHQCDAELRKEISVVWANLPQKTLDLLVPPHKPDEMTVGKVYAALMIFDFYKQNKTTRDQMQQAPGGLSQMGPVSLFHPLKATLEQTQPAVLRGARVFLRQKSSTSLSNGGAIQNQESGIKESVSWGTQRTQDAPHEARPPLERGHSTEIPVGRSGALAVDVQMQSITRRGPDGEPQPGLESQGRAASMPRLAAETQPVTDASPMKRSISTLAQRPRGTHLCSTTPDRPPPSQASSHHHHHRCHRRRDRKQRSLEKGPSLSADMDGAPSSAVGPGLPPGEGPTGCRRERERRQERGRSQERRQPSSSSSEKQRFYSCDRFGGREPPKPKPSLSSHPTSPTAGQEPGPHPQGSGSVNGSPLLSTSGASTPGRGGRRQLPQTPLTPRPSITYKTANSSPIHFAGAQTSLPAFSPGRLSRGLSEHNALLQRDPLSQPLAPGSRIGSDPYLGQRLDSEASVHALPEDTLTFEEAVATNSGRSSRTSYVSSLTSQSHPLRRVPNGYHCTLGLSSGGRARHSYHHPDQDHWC
T1 sequence (P54284 whole entry partner): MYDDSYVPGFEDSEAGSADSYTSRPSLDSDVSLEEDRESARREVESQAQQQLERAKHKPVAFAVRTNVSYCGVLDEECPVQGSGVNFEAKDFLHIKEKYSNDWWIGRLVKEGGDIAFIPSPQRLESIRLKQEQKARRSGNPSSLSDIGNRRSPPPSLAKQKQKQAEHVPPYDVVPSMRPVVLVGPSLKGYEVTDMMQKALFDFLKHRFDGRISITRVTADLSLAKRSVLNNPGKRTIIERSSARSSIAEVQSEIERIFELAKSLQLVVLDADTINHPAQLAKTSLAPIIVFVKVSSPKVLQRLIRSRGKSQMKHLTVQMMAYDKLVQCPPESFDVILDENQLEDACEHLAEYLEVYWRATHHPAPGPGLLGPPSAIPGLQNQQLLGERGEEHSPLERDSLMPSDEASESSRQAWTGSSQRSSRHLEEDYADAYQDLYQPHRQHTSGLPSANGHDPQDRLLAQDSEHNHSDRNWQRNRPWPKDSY
T1 sequence (P54289 25-956 partner limits assumed): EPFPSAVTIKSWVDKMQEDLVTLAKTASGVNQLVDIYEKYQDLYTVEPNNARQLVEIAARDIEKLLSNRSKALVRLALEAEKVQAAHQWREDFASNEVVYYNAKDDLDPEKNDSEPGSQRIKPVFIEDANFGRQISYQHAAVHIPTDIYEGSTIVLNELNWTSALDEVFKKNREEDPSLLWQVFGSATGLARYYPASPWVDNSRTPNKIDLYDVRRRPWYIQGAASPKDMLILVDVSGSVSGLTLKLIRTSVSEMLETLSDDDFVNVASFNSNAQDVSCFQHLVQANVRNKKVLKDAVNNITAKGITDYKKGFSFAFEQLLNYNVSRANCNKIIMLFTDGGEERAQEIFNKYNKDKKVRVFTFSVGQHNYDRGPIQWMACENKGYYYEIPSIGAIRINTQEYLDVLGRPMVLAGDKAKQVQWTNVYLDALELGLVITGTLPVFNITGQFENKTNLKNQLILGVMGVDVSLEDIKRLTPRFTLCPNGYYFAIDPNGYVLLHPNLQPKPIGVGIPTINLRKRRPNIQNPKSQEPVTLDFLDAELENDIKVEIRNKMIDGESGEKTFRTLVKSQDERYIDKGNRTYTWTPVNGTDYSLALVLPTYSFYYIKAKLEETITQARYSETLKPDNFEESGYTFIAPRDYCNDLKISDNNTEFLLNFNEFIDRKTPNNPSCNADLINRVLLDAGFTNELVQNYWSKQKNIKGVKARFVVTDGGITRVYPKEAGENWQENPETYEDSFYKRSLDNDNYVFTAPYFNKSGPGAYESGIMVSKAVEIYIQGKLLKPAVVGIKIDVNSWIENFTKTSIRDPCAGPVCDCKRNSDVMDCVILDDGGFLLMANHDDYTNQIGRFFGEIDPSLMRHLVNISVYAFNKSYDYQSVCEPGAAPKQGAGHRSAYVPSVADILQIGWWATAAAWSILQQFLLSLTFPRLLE
T1 sequence (P54289 957-1103 partner limits assumed): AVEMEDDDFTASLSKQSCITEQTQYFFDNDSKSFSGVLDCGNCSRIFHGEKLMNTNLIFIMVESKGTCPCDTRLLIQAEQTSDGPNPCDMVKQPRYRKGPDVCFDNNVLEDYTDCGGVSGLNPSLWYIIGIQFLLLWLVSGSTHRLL

[2] = target: T1, human Cav2.2 channels; settings: HEK293 cells stably expressing human Cav2.2; n = 4–7; personal communication ref 40; read-out: IC50, block of calcium currents; cited from earlier work
[3] = set-up: method as in earlier work; settings: primary endpoint; cited from earlier work
[4] = test system: N-type channel; settings: cited from earlier work
[5] = SH-SY5Y cells, 90 mM KCl and 5 mM CaCl2, 10 µM nifedipine, 5 min pre-treatment
[6] = SH-SY5Y cells, 90 mM KCl and 5 mM CaCl2, 10 µM nifedipine, 5 min pre-treatment, read-out: IC50

Compound	logIC50 [1, 5]	IC50 [1, 6]	extent of inhibition of KCl-induced Ca2+ responses ([1]; SH-SY5Y cells)	inhibition at 300 µM [1]	further results
NCCCOc1ccc(C(=O)Nc2ccccc2Oc2ccc(F)cc2)cc1 [5a, 4-(3-Aminopropoxy)-N-(2-(4-fluorophenoxy)phenyl)benzamide]	–4.34	46 µM	fully blocked	–	–
NCCCOc1ccc(C(=O)Nc2cccc(Oc3ccc(F)cc3)c2)cc1 [5b, 4-(3-Aminopropoxy)-N-(3-(4-fluorophenoxy)phenyl)benzamide]	–4.45	35 µM	fully blocked	–	–
NCCCOc1ccc(C(=O)Nc2ccc(Oc3ccc(F)cc3)cc2)cc1 [5c, 4-(3-Aminopropoxy)-N-(4-(4-fluorophenoxy)phenyl)benzamide]	~–3.12	764 µM	partially inhibited responses	30%	–
Cl.N=C(N)NCCCOc1ccc(C(=O)Nc2ccccc2Oc2ccc(F)cc2)cc1 [6a, N-(2-(4-Fluorophenoxy)phenyl)-4-(3-guanidinopropoxy)benzamide hydrochloride]	–3.90	–	–	65%	IC50 [2]: 36.3 ± 2.4 µM
Cl.N=C(N)NCCCOc1ccc(C(=O)Nc2cccc(Oc3ccc(F)cc3)c2)cc1 [6b, N-(3-(4-Fluorophenoxy)phenyl)-4-(3-guanidinopropoxy)benzamide hydrochloride]	–3.73	185 µM	–	–	–
Cl.N=C(N)NCCCOc1ccc(C(=O)Nc2ccc(Oc3ccc(F)cc3)cc2)cc1 [6c, N-(4-(4-Fluorophenoxy)phenyl)-4-(3-guanidinopropoxy)benzamide hydrochloride]	–3.14	723 µM	partially inhibited responses	19%	–
O=C(CC(c1ccccc1)c1ccccc1)N1CCN(C(c2ccccc2)c2ccccc2)CC1 [Z160]	–	–	–	–	outcome of Phase II clinical studies [3]: failed to meet the primary endpoint
N=C(N)NCCCCCCCC(=O)Nc1ccc(OCCCNC(=N)N)cc1C(=O)Nc1ccc(Oc2ccc(F)cc2)cc1 [compound 3, reference compound]	–	–	–	15%	extent of inhibition of Ca2+ responses at 1 mM [1]: only partially inhibited responses; logIC50 [1]: ~–2.84; IC50 ([1]; IC50): ~1450 µM and 1450 µM; activity in radioligand-displacement assay (in words) [4]: most potent fluorinated analogue
NCCCCCCCC(=O)Nc1ccc(OCCCN)cc1C(=O)Nc1ccc(Oc2ccc(F)cc2)cc1 [compound 4]	–	–	–	–	activity in radioligand-displacement assay (in words) [4]: comparatively weak activity
